Measurements: patent publication US10072001B2, “Tank-binding kinase inhibitor compounds” (Gilead Sciences, Inc., priority 2014, dated 2018)

Assays:
TBK1 = TBK1 (Homo sapiens (Human), UniProt Q9UHD2); assay: TR-FRET kinase assay, TBK1; settings: read-out: TBK1-IC50; full length recombinant TBK1 2.5 nM, 2x Km ATP, 1 μM peptide, 240 min at 25° C.; geometric mean of minimum four determinations
Sequence of TBK1 (Q9UHD2 whole entry): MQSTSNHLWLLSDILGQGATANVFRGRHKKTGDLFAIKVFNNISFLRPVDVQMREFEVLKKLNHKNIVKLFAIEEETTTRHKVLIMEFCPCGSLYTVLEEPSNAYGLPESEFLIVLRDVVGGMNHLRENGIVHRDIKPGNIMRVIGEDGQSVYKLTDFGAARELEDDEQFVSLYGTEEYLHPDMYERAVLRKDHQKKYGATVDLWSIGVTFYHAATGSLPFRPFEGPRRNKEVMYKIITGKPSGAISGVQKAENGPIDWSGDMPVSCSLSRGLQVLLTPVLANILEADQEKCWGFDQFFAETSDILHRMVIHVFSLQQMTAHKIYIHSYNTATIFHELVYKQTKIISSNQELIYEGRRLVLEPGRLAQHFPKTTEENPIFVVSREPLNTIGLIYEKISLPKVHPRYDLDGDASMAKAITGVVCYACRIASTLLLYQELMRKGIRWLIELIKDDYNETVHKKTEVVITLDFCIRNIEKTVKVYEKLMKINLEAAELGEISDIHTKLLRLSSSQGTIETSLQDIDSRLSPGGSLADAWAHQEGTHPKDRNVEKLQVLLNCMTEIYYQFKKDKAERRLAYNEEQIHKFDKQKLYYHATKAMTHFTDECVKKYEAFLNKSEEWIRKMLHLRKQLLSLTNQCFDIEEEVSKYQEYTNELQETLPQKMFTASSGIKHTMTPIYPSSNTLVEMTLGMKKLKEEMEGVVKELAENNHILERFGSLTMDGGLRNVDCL
Description: Enzymatic activity of IKKε and TBK1 was measured using a homogeneous time resolved fluorescence resonance energy transfer (TR-FRET) assay that monitors enzyme dependent phosphorylation of a biotinylated serine/threonine peptide substrate. […] TBK1 and IKKs were expressed and purified as full length recombinant proteins. Detection reagents for the assay were purchased from Cisbio. […] After an assay reaction time of 240 minutes at 25° C., reactions were terminated with EDTA.
Amount of phosphorylated peptide was determined by the addition of 125 nM streptavidin XL665 and europium cryptate labeled anti-phospho monoclonal antibody and the resulting TR-FRET signal was recorded on an Envision plate reader (Ex: 340 nm; Em: 615/665 nm; 100 μs delay and 200 μs read window). […] All IC50 values represent geometric mean values of a minimum of four determinations.

IKKε = IKKε (Homo sapiens (Human), UniProt Q14164); assay: TR-FRET kinase assay, IKKε; type: biochemical; settings: full length recombinant IKKε 0.3 nM, 2x Km ATP, 1 μM peptide, 240 min at 25° C.; geometric mean of minimum four determinations
Sequence of IKKε (Q14164 whole entry): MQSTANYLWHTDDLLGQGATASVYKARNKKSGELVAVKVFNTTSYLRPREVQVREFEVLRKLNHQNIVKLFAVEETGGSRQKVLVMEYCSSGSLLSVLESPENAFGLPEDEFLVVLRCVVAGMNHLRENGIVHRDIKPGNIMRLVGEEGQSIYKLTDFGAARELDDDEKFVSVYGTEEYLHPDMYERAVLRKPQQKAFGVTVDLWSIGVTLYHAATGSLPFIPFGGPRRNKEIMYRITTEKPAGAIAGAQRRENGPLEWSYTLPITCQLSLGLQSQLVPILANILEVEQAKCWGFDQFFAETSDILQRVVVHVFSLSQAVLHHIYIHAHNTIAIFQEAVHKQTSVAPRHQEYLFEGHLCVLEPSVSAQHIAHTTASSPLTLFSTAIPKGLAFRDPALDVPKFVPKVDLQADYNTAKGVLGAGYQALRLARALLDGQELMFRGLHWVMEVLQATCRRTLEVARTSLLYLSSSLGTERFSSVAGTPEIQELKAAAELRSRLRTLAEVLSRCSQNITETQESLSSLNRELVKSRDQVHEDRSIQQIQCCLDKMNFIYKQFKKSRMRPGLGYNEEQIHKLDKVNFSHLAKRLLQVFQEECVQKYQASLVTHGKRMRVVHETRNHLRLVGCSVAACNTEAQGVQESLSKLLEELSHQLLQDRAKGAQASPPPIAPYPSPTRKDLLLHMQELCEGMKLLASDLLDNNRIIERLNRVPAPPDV
Source text: Biological Assay for TBK1 and IKKs:

| Compound | IC50 (TBK1) | IC50 (IKKε) |
| --- | --- | --- |
| CC(C)(C)OC(=O)N1CC=C(c2cc3c(-c4ccc(OC5CCOCC5)c(C#N)c4)ccnc3[nH]2)C1 [Example 36, tert-butyl 3-(4-(3-cyano-4-((tetrahydro-2H-pyran-4-yl)oxy)phenyl)-1H-pyrrolo[2,3-b]pyridin-2-yl)-2,5-dihydro-1H-pyrrole-1-carboxylate] | 38.4 nM | 79 nM |
| 4-(2-cyano-4-(2-(4-(4-(2,2-difluoroethyl)piperazin-1-yl)phenyl)-3H-imidazo[4,5-b]pyridin-7-yl)phenoxy)piperidine-1-sulfonamide [Example 263] | 3.07 nM | 6.32 nM |
| COc1cc(N2CCOCC2)ccc1-c1cc2c(-c3ccc(OC4CCOCC4)c(C#N)c3)ncnc2[nH]1 [Example 137, 5-(6-(2-methoxy-4-morpholinophenyl)-7H-pyrrolo[2,3-d]pyrimidin-4-yl)-2-((tetrahydro-2H-pyran-4-yl)oxy)benzonitrile] | 9.78 nM | 47.5 nM |
| N#Cc1cc(-c2ccnc3[nH]c(C4=CCNC4)cc23)ccc1OC1CCOCC1 [Example 37, 5-(2-(2,5-dihydro-1H-pyrrol-3-yl)-1H-pyrrolo[2,3-b]pyridin-4-yl)-2-((tetrahydro-2H-pyran-4-yl)oxy)benzonitrile] | 13.4 nM | 46.3 nM |
| N#Cc1cc(-c2cc3c(-c4ccc(OC5CCOCC5)c(C#N)c4)ccnc3[nH]2)ccc1OC1CCOCC1 [Example 62, 5,5′-(1H-pyrrolo[2,3-b]pyridine-2,4-diyl)bis(2-((tetrahydro-2H-pyran-4-yl)oxy)benzonitrile)] | 24.1 nM | 25.3 nM |
| CN1CCN(c2ccc(-c3cc4c(-c5ccc(OC6CCOCC6)c(C#N)c5)ccnc4[nH]3)cc2)CC1 [Example 82, 5-(2-(4-(4-methylpiperazin-1-yl)phenyl)-1H-pyrrolo[2,3-b]pyridin-4-yl)-2-((tetrahydro-2H-pyran-4-yl)oxy)benzonitrile] | 0.9 nM | 0.29 nM |
| N#Cc1cc(-c2ncnc3[nH]c(-c4ccc(N5CCN(C6COC6)CC5)cc4)cc23)ccc1OC1CCOCC1 [Example 105, 5-(6-(4-(4-(oxetan-3-yl)piperazin-1-yl)phenyl)-7H-pyrrolo[2,3-d]pyrimidin-4-yl)-2-((tetrahydro-2H-pyran-4-yl)oxy)benzonitrile] | 0.87 nM | 5.54 nM |
| CS(=O)(=O)N1CCN(c2ccc(-c3cc4c(-c5ccc(OC6CCOCC6)c(C#N)c5)ncnc4[nH]3)cc2)CC1 [Example 215, 5-(6-(4-(4-(methylsulfonyl)piperazin-1-yl)phenyl)-7H-pyrrolo[2,3-d]pyrimidin-4-yl)-2-((tetrahydro-2H-pyran-4-yl)oxy)benzonitrile] | 1.42 nM | 3.15 nM |
| N#Cc1cc(-c2ncnc3[nH]c(-c4ccc(N5CCOCC5)c(F)c4)cc23)ccc1OC1CCN(C(=O)CO)CC1 [Example 158, 5-(6-(3-fluoro-4-morpholinophenyl)-7H-pyrrolo[2,3-d]pyrimidin-4-yl)-2-((1-(2-hydroxyacetyl)piperidin-4-yl)oxy)benzonitrile] | 1.02 nM | 2.39 nM |
| N#Cc1cc(-c2ncnc3[nH]c(-c4ccc(=O)[nH]c4)cc23)ccc1OC1CCOCC1 [Example 183, 5-(6-(6-oxo-1,6-dihydropyridin-3-yl)-7H-pyrrolo[2,3-d]pyrimidin-4-yl)-2-((tetrahydro-2H-pyran-4-yl)oxy)benzonitrile] | 18.9 nM | 34.7 nM |
| CC(C)(C)OC(=O)N1CCC(Oc2ccc(-c3ncnc4[nH]c(-c5ccc(N6CCOCC6)c(F)c5)nc34)cc2C#N)CC1 [Example 245, tert-butyl 4-(2-cyano-4-(8-(3-fluoro-4-morpholinophenyl)-9H-purin-6-yl)phenoxy)piperidine-1-carboxylate] | 1000 nM | 1000 nM |
| N#Cc1cc(-c2ccnc3[nH]c(C(=O)N4CCOCC4)cc23)ccc1OC1CCOCC1 [Example 116, 5-(2-(morpholine-4-carbonyl)-1H-pyrrolo[2,3-b]pyridin-4-yl)-2-((tetrahydro-2H-pyran-4-yl)oxy)benzonitrile] | 1000 nM | 667 nM |
| N#Cc1cc(-c2ccnc3[nH]c(-c4ccc(-n5cccn5)cc4)cc23)ccc1OC1CCOCC1 [Example 177, 5-(2-(4-(1H-pyrazol-1-yl)phenyl)-1H-pyrrolo[2,3-b]pyridin-4-yl)-2-((tetrahydro-2H-pyran-4-yl)oxy)benzonitrile] | 33.5 nM | 1000 nM |
| COc1ccc(-c2cc3c(-c4ccc(OC5CCNCC5)c(C#N)c4)ncnc3[nH]2)cc1 [Example 123, 5-(6-(4-methoxyphenyl)-7H-pyrrolo[2,3-d]pyrimidin-4-yl)-2-(piperidin-4-yloxy)benzonitrile] | 22.4 nM | 65.8 nM |
| CS(=O)(=O)N1CCC(Oc2ccc(-c3ncnc4[nH]c(-c5ccc(N6CCOCC6)cc5)nc34)cc2C#N)CC1 [Example 253, 2-((1-(methylsulfonyl)piperidin-4-yl)oxy)-5-(8-(4-morpholinophenyl)-9H-purin-6-yl)benzonitrile] | 19.8 nM | 39.8 nM |

Further compounds by falling IC50 (TBK1), results first:

| IC50 (TBK1) | IC50 (IKKε) | Compound |
| --- | --- | --- |
| 26 nM | 84.4 nM | N#Cc1cc(-c2ncnc3[nH]c(-c4ccc(C5CCN(CC(F)F)CC5)cc4)nc23)ccc1OC1CCNCC1 [Example 260, 5-(8-(4-(1-(2,2-difluoroethyl)piperidin-4-yl)phenyl)-9H-purin-6-yl)-2-(piperidin-4-yloxy)benzonitrile] |
| 9.27 nM | 103 nM | N#Cc1cc(-c2ccnc3[nH]c(-c4ccc(N5CCOCC5)cc4)cc23)ccc1OC1COC1 [Example 235, 5-(2-(4-morpholinophenyl)-1H-pyrrolo[2,3-b]pyridin-4-yl)-2-(oxetan-3-yloxy)benzonitrile] |
| 4.21 nM | 13.6 nM | N#Cc1cc(-c2ncnc3[nH]c(-c4ccc(OC(F)(F)F)cc4)cc23)ccc1OC1CCN(C(=O)CO)CC1 [Example 128, 2-((1-(2-hydroxyacetyl)piperidin-4-yl)oxy)-5-(6-(4-(trifluoromethoxy)phenyl)-7H-pyrrolo[2,3-d]pyrimidin-4-yl)benzonitrile] |
| 3.75 nM | 6.42 nM | CS(=O)(=O)c1ccc(-c2cc3c(-c4ccc(OC5CCOCC5)c(C#N)c4)ccnc3[nH]2)cc1 [Example 42, 5-(2-(4-(methylsulfonyl)phenyl)-1H-pyrrolo[2,3-b]pyridin-4-yl)-2-((tetrahydro-2H-pyran-4-yl)oxy)benzonitrile] |
| 3.1 nM | 20.7 nM | N#Cc1cc(-c2ccnc3[nH]c(C4=CCC5(CC4)OCCO5)cc23)ccc1OC1CCOCC1 [Example 180, 5-(2-(1,4-dioxaspiro[4.5]dec-7-en-8-yl)-1H-pyrrolo[2,3-b]pyridin-4-yl)-2-((tetrahydro-2H-pyran-4-yl)oxy)benzonitrile] |
| 1.28 nM | 4.4 nM | Cc1cc(N2CCOCC2)ccc1-c1cc2c(-c3ccc(OC4CCN(C(=O)CO)CC4)c(C#N)c3)ncnc2[nH]1 [Example 121, 2-((1-(2-hydroxyacetyl)piperidin-4-yl)oxy)-5-(6-(2-methyl-4-morpholinophenyl)-7H-pyrrolo[2,3-d]pyrimidin-4-yl)benzonitrile] |
| 1.23 nM | 1.22 nM | N#Cc1cc(-c2ncnc3[nH]c(-c4cccc(Cn5ccnc5)c4)cc23)ccc1OC1CCOCC1 [Example 119, 5-(6-(3-((1H-imidazol-1-yl)methyl)phenyl)-7H-pyrrolo[2,3-d]pyrimidin-4-yl)-2-((tetrahydro-2H-pyran-4-yl)oxy)benzonitrile] |
